The values that follow are results of earlier work, collected in patent US20220354806A1, “COMPOSITION FOR IMPROVING MEMORY” (BGG JAPAN CO., LTD., priority 2019, published 2022).

The conditions of data set [1]: placebo group ingesting corn oil.
The conditions of data set [2]: after ingesting compared with before ingesting; no placebo comparison.
The conditions of data set [3]: greater than that of a vitamin E.

With `CC1=C(/C=C/C(C)=C/C=C/C(C)=C/C=C/C=C(C)/C=C/C=C(C)/C=C/C2=C(C)C(=O)C(O)CC2(C)C)C(C)(C)CC(O)C1=O` (stereo not drawn) [astaxanthin, 3,3′-dihydroxy-β,β-carotene-4,4′-dione], the “improvement effect on the human cognitive function, astaxanthin group vs placebo group” value in data set [1] is “a significant difference of the improvement effect on the human cognitive function is not confirmed”. In data set [2], the “correct answer rate in the operation of the "working memory"” value was “improved” and the “response time of all 5 operations (simple reaction, choice reaction, working memory, delayed recall, divided attention)” value was “improved”. In data set [3], the “anti-oxidation effect relative to vitamin E” value is on record as 1000 times.
